From patent US9980942B2, “Rejuvenation of precursor cells” (Children's Hospital Medical Center, priority 2012, dated 2018) come the findings set out here.

Entries after “also recorded” stand apart in the source; their conditions may differ.

One test has as its target T1, Cdc42 (Mus musculus, UniProt P60766).
T1 construct: lineage depleted BM cells (10^6) were lysed in a Mg2+ lysis/wash buffer; endogenous in cells; host or cells: lineage-depleted bone marrow (Lin- BM) cells from aged C57BL/6 mice
Kind of test: Cdc42-GTPase effector domain pull-down / Western blot. Particulars: CASIN 5 μM, aged lineage depleted bone marrow cells. In kind it is cell-based. The procedure:
Relative levels of GTP-bound Cdc42 were determined by an effector pull-down assay. Briefly, lineage depleted BM cells (10^6) were lysed in a Mg2+ lysis/wash buffer (Upstate cell signaling solutions) containing 10% glycerol, 25 mM sodium fluoride, 1 mM sodium orthovanadate and a protease inhibitor cocktail (Roche Diagnostics). Samples were incubated with PAK-1 binding domain/agarose beads and bound (activated) as well as unbound (non-activated) Cdc42 fractions were probed by immunoblotting with an anti-Cdc42 antibody (Millipore, rabbit polyclonal). Activated protein was normalized to total protein and/or β-actin (Sigma) and the relative amount was quantified by densitometry.
In general terms: A western blot detects proteins with antibodies after separation by electrophoresis.

Another test concerns intestinal epithelium. Kind of test: In vivo rejuvenation of intestinal epithelium (immunohistochemistry). To be noted: vs untreated aged mice. The procedure: To test the extent to which CASIN rejuvenates skin and intestinal epithelium in vivo, aged (22-24 month old B1 6) and young (10-12 week old B1 6) mice were injected with CASIN twice daily (2.4 mg/Kg in PBS and 15% EtOH). A group of control mice in each age group were not given the drug. The injections were given 6 hours apart for 5 days. After 28 days, the mice were sacrificed and skin and intestinal samples were processed for immunohistochemistry.
To further assess the effects of in vivo administration of CASIN on aging parameters in the intestinal epithelium, aged mice were treated with CASIN as described in Example 5. After 28 days, the mice were sacrificed and intestinal samples were processed for immunohistochemistry, including staining for intestinal stem cell markers Bmi1 and Lgr5.

A further test relates to HSC. The experiment in a line: In vivo rejuvenation of HSC (Example 6). The arrangement: species or system mice. The procedure: To test the extent to which CASIN rejuvenates HSC in vivo, aged (20+ months old mice) are given CASIN i. v. or i.p. twice daily for 28 days and compared to young as well as aged solvent injected control groups. In 28 days most of the HSCs cycle at least once in vivo. Subsequently, PB is harvested every 14 days for a total of 2 months and differential blood counts (myeloid cells, lymphoid cells, red blood cells etc) are determined by hemavat counting and flow cytometry. At 3 months post CASIN treatment, when hematopoesis should be fully supported by stem cell activity of the CASIN exposed HSCs, animals are sacrificed and the number of early hematopoietic progenitor cells (Lineage^negc-Kit^+Sca-1^+ or LSK), long-term repopulating-HSC (LSKCD34^low/−Flk-2^−, LT-HSC), lymphoid-primed multi-potent progenitors (LMPPs, LSKCD34^+Flk-2^+11, 23, 24) are determined.
Separately, to investigate the effect of CASIN on stem cell fitness and lineage differentiation, standard competitive transplantation assays are performed using the syngeneic CD45.1/CD45.2 surface marker system to differentiate donor from recipient cells. […] Lineage chimerism (myeloid, B- and T-lymphoid) in peripheral blood (PB) is then determined up to 24-weeks post-transplant. […]

The next test has as its system aged HSCs. Kind of test: Whole genome expression profiling of HSCs. Particulars: CASIN treated aged HSCs. The format is cell-based. From the text: Aged HSCs have distinct whole genome expression profiles. To define the effect of Cdc42 inhibition by CASIN on molecular pathways regulating HSCs, cDNA was derived from linearly amplified RNA from CASIN-treated or untreated aged or young HSCs, using tested amplification, array hybridization and bioinformatic analysis services provided by the company Miltenyi. The goal of these experiments was to identify changes in whole genome expression patterns or in functionally defined groups of genes, rather than changes in individual genes. Differences in expression of functional gene groups was confirmed by real-time RT-PCR of selected genes using the standard ABI/Taqman probe system.

In the next test the test system is skin. The experiment in a line: Topical rejuvenation of dermal tissue. To be noted: aged mice, topical non-transdermal formulation. In kind it is in vivo. As for the experimental part:
To further assess the effects of in vivo administration of CASIN on aging parameters in the skin, aged mice are treated with CASIN as described in Example 5. However, instead of intraperitoneal injection, CASIN is administered topically in a formulation designed for non-transdermal use. The treated and untreated aged and young mice are then tested for skin thickness and wound healing.

A short description of test [1]: Weight of young and aged mice after CASIN. The format is in vivo, C57BL/6 mice. To be noted: aged mice, 2.4 mg/kg twice a day for 5 days intraperitoneal, after 1 week. As for the experimental part:
CASIN was given at a dose of 2.4 mg/kg twice a day 6 hours apart for 5 days via intraperitoneal injection in both young (10-12 wk old) and aged (22-24 month old) C57BL/6 mice. Aged C57BL/6 mice present with elevated Cdc42 activity in multiple tissues. Weight of the mice was determined in the young and aged control group (no CASIN, just vehicle (PBS/15% Ethanol)) at initiation of the experiment and after 1 week, as well as in the CASIN treated groups (young and aged) at initiation and 1 week after.

The mark [2] stands for this setting: aged mice treated as in Example 5, after 28 days.

T1 sequence (P60766 whole entry): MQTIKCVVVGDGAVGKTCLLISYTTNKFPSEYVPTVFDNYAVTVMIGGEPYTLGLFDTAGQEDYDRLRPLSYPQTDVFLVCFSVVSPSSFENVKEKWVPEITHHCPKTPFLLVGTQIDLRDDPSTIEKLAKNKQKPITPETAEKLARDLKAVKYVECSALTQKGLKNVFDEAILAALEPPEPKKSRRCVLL

As for `OCCNC1CCCc2c1[nH]c1ccc(-c3ccccc3)cc21` (stereo not shown) [CASIN], the “level of active Cdc42 (Cdc42-GTP)” value on Cdc42 was “reduced the elevated level of active Cdc42 observed in aged primitive hematopoietic cells to the level observed in young cells”. Moreover, in the test with intestinal epithelium (setting [2]), the “number of stem cells in crypts (Bmi1 and Lgr5 staining)” value is on record as “renewed number of stem cells”; the “shape, size and distribution of villi and crypts” value is reported as “marked improvement”. The “shape, number and density of crypts” value with intestinal epithelium (aged mice, 2.4 mg/Kg twice daily for 5 days, after 28 days) is listed as “marked improvement”. Besides, the “preferential differentiation towards the myeloid lineage” value in the test on HSC (CASIN-treated aged HSCs) is on record as “ameliorated”. For the same compound, in the test on HSC (HSCs from CASIN-treated aged animals), the “chimerism in competitive transplant assays” value was “greater than the overall chimerism supported by aged HSCs and similar to that observed for young HSCs”. The “whole genome expression pattern” value with aged HSCs is “largely resemble young HSCs”. In the test with skin, the skin thickness result was “approximately equal to that of young mice” and the wound healing result was “respond similarly or nearly identical to the skin of young mice”. The weight entry in test [1] is “significant reduction; also recorded: weight loss”.
